# Assay results taken from patent US20050239856A1, “Method for prophylaxis and treatment of diabetic complications with 4{alpha-hydroxy-2-methyl-5-(1-imidazolyl)benzyl}-3,5-dimethylbenzoic acid and derivatives” (priority 1995, published 2005).
# Experiments:
# [1] = system: tail nerve of streptozotocin diabetic Sprague-Dawley rats; experiment: Tail nerve conduction velocity in streptozotocin-induced diabetic rats (Experimental Example 1); type: in vivo, rat; conditions: STZ diabetic rats; for tail nerve conduction velocity 7 wks after administration / tail nerve conduction velocity 5 wks after administration / tail nerve conduction velocity 4 wks after administration: mean ± standard error; for effect on tail nerve conduction velocity decreased by diabetes (in words): dose-dependent, oral once a day
# Protocol: (§1) Diabetes was induced by intravenous administration of streptozotocin (65 mg/kg) to 6-week-old male Sprague-Dawley rats. Starting from 2-4 weeks after the onset of diabetes, a 0.5% hydroxypropylmethylcellulose suspension containing the compound of the present invention was orally administered once a day. At 4-7 weeks from the administration, tail nerve conduction velocity was measured with an induction potential test device (Neuropack 2, manufactured by Nihon Kohden) according to a modification of the method of Miyoshi (Fukuoka Medical Journal, vol. 62, pp. 588-603 (1971)). To be specific, subcutaneous temperature at the tail was maintained at 37° C. and the tail nerve was percutaneously stimulated electrically at 2 stimulation points (interval 6 cm). The distance between stimulation points was divided by the difference between latencies in electromyogram induced to give nerve conduction velocity. As to the test group in Table 1, blood glucose was measured at 6 weeks after administration. At 7 weeks after administration, urinary excretion of TXB2, which is a stable metabolite of TXA2, was measured.
# [2] = Blood glucose in streptozotocin-induced diabetic rats (Experimental Example 1); type: in vivo, rat; conditions: STZ diabetic rats; for blood glucose: 6 weeks after administration, mean ± standard error
# Protocol: as §1
# [3] = system: TXA2 biosynthesis (urinary TXB2); experiment: Urinary excretion of TXB2, stable metabolite of TXA2, in streptozotocin-induced diabetic rats (Experimental Example 1); type: in vivo, rat; conditions: STZ diabetic rats; for urinary TXB2 excretion: 7 weeks after administration, mean ± standard error
# Protocol: as §1
# [4] = system: tail nerve of streptozotocin diabetic Sprague-Dawley rats; experiment: Tail nerve conduction velocity in rats, administration from 16 weeks after onset of streptozotocin diabetes (Experimental Example 3); type: in vivo, rat; conditions: for tail nerve conduction velocity 5 wks after administration: started 16 weeks after onset of STZ diabetes; for tail nerve conduction velocity 5 wks after administration / tail nerve conduction velocity Before administration: mean ± standard error; for tail nerve conduction velocity Before administration: 16 weeks after onset of STZ diabetes
# Protocol: Diabetes was induced by intravenous administration of streptozotocin (65 mg/kg) to 6-week-old male Sprague-Dawley rats. Starting from 16 weeks after the onset of diabetes, a 0.5% hydroxypropylmethylcellulose suspension containing compound A-1 was orally administered once a day. At 5 weeks from the administration, tail nerve conduction velocity was measured with arm induction potential test device (Neuropack 2, manufactured by Nihon Kohden) according to a modification of the method of Miyoshi (Fukuoka Medical Journal, vol. 62, pp. 588-603 (1971)). To be specific, subcutaneous temperature at the tail was maintained at 37° C. and the tail nerve was percutaneously stimulated electrically at 2 stimulation points (interval 6 cm). The distance between the stimulation points was divided by the difference between latencies in induced electromyogram to give nerve conduction velocity.
# [5] = system: kidney glomerulus of streptozotocin diabetic Sprague-Dawley rats; experiment: Degree of glomerular disorder in streptozotocin-induced diabetic rats (Experimental Example 4); type: in vivo, rat; conditions: STZ diabetic rats; for glomerular disorder score: total score of 50 glomeruli (0-4 each), mean ± standard error
# Protocol: Diabetes was induced by intravenous administration of streptozotocin (65 mg/kg) to 5-week-old male Sprague-Dawley rats. Starting from 9 weeks after the onset of diabetes, a 0.5% hydroxypropylmethylcellulose suspension containing compound A-1 was orally administered once a day. At 9 weeks from the administration, kidney was removed to determine the degree of glomerular disorder and fixed in a 10% neutral-buffered formalin solution. Tissue sections were stained with hematoxylin/eosin. Glomerulus was evaluated according to the degree of obstruction in 5 stages (0: no obstruction, 1: up to 25% obstruction, 2: up to 50% obstruction, 3: up to 75% obstruction, 4: up to 100% obstruction). Fifty glomeruli were evaluated per sample and the total score was used as an index of the degree of glomerular disorder. This operation was done under a single blind condition.
# [6] = system: sciatic nerve of spontaneously diabetic mice (db/db); experiment: Sciatic nerve conduction velocity in spontaneously diabetic mice (db/db) (Experimental Example 2); type: in vivo, mouse; conditions: for sciatic nerve conduction velocity 4 wks after administration / sciatic nerve conduction velocity 5 wks after administration: db/db mice, mean ± standard error; for effect on sciatic nerve conduction velocity (in words): spontaneous diabetic mice, oral once a day
# Protocol: A 0.5% hydroxypropylmethylcellulose suspension containing the compound of the present invention was orally administered to 9-week-old male spontaneously diabetic mice (db/db) once a day. At 4-5 weeks from the administration, sciatic nerve conduction velocity was measured with an induction potential test device (Neuropack 2, manufactured by Nihon Kohden) according to a modification of the method of Yasuda (Diabetes, 38, p. 832-838 (1989)). To be specific, rectal temperature was maintained at 37° C. and two points of sciatic notch and ankle were percutaneously stimulated electrically. The distance between the stimulation points was divided by the difference between latencies in induced electromyogram to give nerve conduction velocity.
# biosynthesis of TXA2 = experiment: Biosynthesis of TXA2 in rats with diabetes (sodium ozagrel); type: in vivo, rat
# [7] = system: tail nerve of rats with diabetes; experiment: Tail nerve conduction velocity in rats with diabetes (sodium ozagrel); type: in vivo, rat
smiles,measurement,setting,value
"Cc1ccc(-n2ccnc2)cc1C(O)c1c(C)cc(C(=O)[O-])cc1C.O.O.[Na+] (stereo not drawn) [Compound A-1, sodium 4-[α-hydroxy-2-methyl-5-(1-imidazolyl)benzyl]-3,5-dimethylbenzoate dihydrate]",tail nerve conduction velocity 7 wks after administration,[1]; 0.03 mg/kg/day oral once a day,42.0 ± 0.5 m/sec
same,tail nerve conduction velocity 7 wks after administration,[1]; 0.1 mg/kg/day oral once a day,43.4 ± 0.4 m/sec
same,tail nerve conduction velocity 7 wks after administration,[1]; 0.3 mg/kg/day oral once a day,43.7 ± 0.3 m/sec
same,tail nerve conduction velocity 7 wks after administration,[1]; 1.0 mg/kg/day oral once a day,44.8 ± 0.4 m/sec
same,effect on tail nerve conduction velocity decreased by diabetes (in words),[1],increased tail nerve conduction velocity
same,blood glucose,[2]; 0.03 mg/kg/day oral once a day,718.3 ± 50.7 mg/dL
same,blood glucose,[2]; 0.1 mg/kg/day oral once a day,772.1 ± 32.4 mg/dL
same,blood glucose,[2]; 0.3 mg/kg/day oral once a day,791.9 ± 65.5 mg/dL
same,blood glucose,[2]; 1.0 mg/kg/day oral once a day,718.4 ± 64.1 mg/dL
same,effect on blood glucose (in words),[2]; 0.03-1.0 mg/kg/day,without affecting the blood glucose
same,urinary TXB2 excretion,[3]; 0.03 mg/kg/day oral once a day,10.6 ± 1.4 ng/day/100 g body weight
same,urinary TXB2 excretion,[3]; 0.1 mg/kg/day oral once a day,6.9 ± 0.8 ng/day/100 g body weight
same,urinary TXB2 excretion,[3]; 0.3 mg/kg/day oral once a day,5.1 ± 0.5 ng/day/100 g body weight
same,urinary TXB2 excretion,[3]; 1.0 mg/kg/day oral once a day,3.4 ± 0.3 ng/day/100 g body weight
same,effect on urinary TXB2 excretion increased by diabetes (in words),"[3]; dose-dependent, 0.03-1.0 mg/kg/day",decreased urinary TXB2 excretion
same,tail nerve conduction velocity 5 wks after administration,[4]; 0.3 mg/kg/day oral once a day,48.3 ± 0.6 m/sec
same,tail nerve conduction velocity 5 wks after administration,[4]; 1 mg/kg/day oral once a day,49.4 ± 0.4 m/sec
same,tail nerve conduction velocity 5 wks after administration,[4]; 3 mg/kg/day oral once a day,50.2 ± 0.5 m/sec
same,effect on tail nerve conduction velocity lowered by the progression of diabetes (in words),"[4]; administration from 16 weeks after onset of diabetes, dose-dependent",increased tail nerve conduction velocity
same,tail nerve conduction velocity Before administration,[4]; baseline of the 0.3 mg/kg/day group,46.2 ± 0.5 m/sec
same,tail nerve conduction velocity Before administration,[4]; baseline of the 1 mg/kg/day group,46.1 ± 0.4 m/sec
same,tail nerve conduction velocity Before administration,[4]; baseline of the 3 mg/kg/day group,46.0 ± 0.3 m/sec
same,glomerular disorder score,[5]; 0.3 mg/kg/day oral once a day for 9 weeks,90.8 ± 10.0
same,glomerular disorder score,[5]; 1 mg/kg/day oral once a day for 9 weeks,65.7 ± 12.0
same,glomerular disorder score,[5]; 10 mg/kg/day oral once a day for 9 weeks,55.4 ± 9.2
same,effect on glomerular disorder due to diabetes (in words),[5]; dose-dependent,suppressed glomerular disorder
"Cc1ccc(-n2ccnc2)cc1[C@H](O)c1c(C)cc(C(=O)[O-])cc1C.O.[Na+] [Compound A-2, sodium (S)-(−)-4[α-hydroxy-2-methyl-5-(1-imidazolyl)benzyl]-3,5-dimethylbenzoate 2/3 hydrate]",tail nerve conduction velocity 5 wks after administration,[1]; 0.03 mg/kg/day oral once a day,40.7 ± 0.5 m/sec
same,tail nerve conduction velocity 5 wks after administration,[1]; 0.1 mg/kg/day oral once a day,42.6 ± 0.4 m/sec
same,tail nerve conduction velocity 5 wks after administration,[1]; 0.3 mg/kg/day oral once a day,43.0 ± 0.3 m/sec
same,tail nerve conduction velocity 5 wks after administration,[1]; 1 mg/kg/day oral once a day,42.6 ± 0.5 m/sec
same,effect on tail nerve conduction velocity decreased by diabetes (in words),[1],suppressed decrease in tail nerve conduction velocity
same,sciatic nerve conduction velocity 4 wks after administration,[6]; 0.05 mg/kg/day oral once a day,46.6 ± 1.5 m/sec
same,sciatic nerve conduction velocity 4 wks after administration,[6]; 0.5 mg/kg/day oral once a day,51.9 ± 1.2 m/sec
same,sciatic nerve conduction velocity 4 wks after administration,[6]; 5 mg/kg/day oral once a day,51.7 ± 1.4 m/sec
same,effect on sciatic nerve conduction velocity (in words),[6],increased sciatic nerve conduction velocity
"Cc1ccc(-n2ccnc2)cc1[C@H](O)c1c(C)cc(C(=O)O)cc1C [Compound A-4, (S)-(−)-4-[α-hydroxy-2-methyl-5-(1-imidazolyl)benzyl]-3,5-dimethylbenzoic acid]",tail nerve conduction velocity 4 wks after administration,[1]; 0.3 mg/kg/day oral once a day,40.9 ± 0.5 m/sec
same,tail nerve conduction velocity 4 wks after administration,[1]; 1 mg/kg/day oral once a day,41.3 ± 0.4 m/sec
same,tail nerve conduction velocity 4 wks after administration,[1]; 3 mg/kg/day oral once a day,41.7 ± 0.5 m/sec
same,effect on tail nerve conduction velocity decreased by diabetes (in words),[1],suppressed decrease in tail nerve conduction velocity
same,sciatic nerve conduction velocity 5 wks after administration,[6]; 0.3 mg/kg/day oral once a day,45.2 ± 1.2 m/sec
same,sciatic nerve conduction velocity 5 wks after administration,[6]; 1 mg/kg/day oral once a day,45.9 ± 0.7 m/sec
same,sciatic nerve conduction velocity 5 wks after administration,[6]; 3 mg/kg/day oral once a day,45.3 ± 0.8 m/sec
same,effect on sciatic nerve conduction velocity (in words),[6],increased sciatic nerve conduction velocity
"O=C([O-])/C=C/c1ccc(Cn2ccnc2)cc1.[Na+] [sodium ozagrel, sodium (E)-p-(imidazol-1-ylmethyl)cinnamate]",effect on promotion of biosynthesis of TXA2 (in words),biosynthesis of TXA2,suppresses promotion of biosynthesis of TXA2
same,effect on decreased tail nerve conduction velocity (in words),[7],does not improve decreased tail nerve conduction velocity
